Key:
[1] = test system: pacing heart failure preparations (Yorkshire pigs); assay: Systemic and pulmonary hemodynamics after A1 adenosine receptor antagonist infusion in pacing heart failure pigs (Example 1); assay type: in vivo, pig
Text: Nineteen Yorkshire pigs (20-25 kg, male Hambone Farms, SC) were instrumented in order to induce pacing cardiac heart failure as described in Tomita et al., Circulation, 83, pp. 635-644 (1991). Briefly, under isoflurane anesthesia (3% in 1.5 L/min of oxygen) and through a left thoracotomy, a shielded stimulated electrode was sutured onto the left atrium, connected to a modified programmable pacemaker (8329 Medtronic, Inc., Minneapolis, Minn.) and buried in a subcutaneous pocket. Ten to fourteen days following recovery from the surgical procedure, a baseline echocardiographic study was performed and pacing initiate at 240 beats/min for 3 weeks. An additional group of 7 normal control animals were cared for in identical fashion with the exception of the pacing protocol. At the conclusion of the 3-week pacing period, the pacemakers were de-activated and echocardiographic studies were performed. For these studies, the animals were brought to the laboratory and the pacemakers were deactivated. Two-dimensional and M-mode echocardiographic studies (ATL Ulmark VI, 2.25 MHz transducer, Bothell, Wash.) were used to image the left ventricle from a right parasternal approach. Following the echocardiographic study, the animals were prepared for acute instrumentation and initiation of the study protocol.
The pigs were anesthetized with intravenous boluses of sufentanyl 2.0 μg/kg, etomidate 0.3 mg/kg, and vecuronium 10 mg, after which a tracheostomy was performed. A tubocurarine 12 mg intravenous bolus was administered after obtaining arterial pressure. Anesthesia was maintained throughout the procedure by continuous intravenous infusions of morphine sulfate 3 mg/kg/hr and tubocurarine 2 mg/hr. Etomidate 0.1 mg/kg intravenous was also given at 30 minute intervals. A maintenance infusion of 10 ml/kg/hr of lactated Ringer's solution was maintained throughout the protocol. […] A multi-lumened thermodilution catheter (7.5 Fr, Baxter Healthcare Corp., Irvine, Calif.) was positioned in a pulmonary artery via the right external jugular vein and a large bore catheter (7 Fr) was placed in the left external jugular vein for fluid administration. The carotid artery was exposed and cannulated, and the catheter (7 Fr) was advanced to the aortic root for aortic blood pressure measurements and blood samplings.
Following instrumentation and a 15-minute stabilization period, baseline hemodynamics were recorded and digitized. Thermodilution derived cardiac output and ejection fraction were obtained from the pulmonary artery catheter in triplicate. All measurements were simultaneously recorded with the ventilator temporarily suspended in order to prevent respiratory artifact the recordings. An arterial sample was drawn for electrolyte assays. Pulmonary and systemic vascular resistances were computed from the thermodilution cardiac output and pressure measurements using standard formulae.
Following instrumentation and collection of baseline measurements, the animals were randomly assigned to receive either vehicle infusion (polyethylene glycol, 3 ml intravenous, n=10) or the A1 adenosine receptor antagonist (1 mg/kg 1,8-(3-Oxa-tricyclo[3.2.1.0^2,4]oct-6-yl)-1,3-dipropyl-3,7-dihydro-purine-2,6-dione (BG9719); n=9). Following infusion of vehicle or BG9719, the hemodynamic measurements described in the previous section were repeated at 10, 30, 60, 90, 120 minutes post infusion.
Changes in hemodynamics were initially examined between the control and A1 adenosine receptor antagonist (BG9719) groups by ANOVA. Comparisons between these baseline values following randomization were performed by a 2-way ANOVA. Comparisons of these parameters following infusion were compared using a multi-way ANOVA for repeated measures. Pair-wise comparisons were performed with a Bonferroni adjusted t-test. All statistical analyses were performed using statistical software programs (BMDP Statistical Software Inc. University of California Press, Los Angeles, Calif.).

[2] = test system: pacing HF preparations (Yorkshire pigs); assay: Systemic and pulmonary hemodynamics after A1 adenosine receptor antagonist infusion in pacing heart failure pigs (Example 2); assay type: in vivo, pig
Procedure: Four Yorkshire pigs (25-30 kg, male, Hambone Farms, SC) were implanted with a pacemaker (8329, Medtronic, Inc., Minneapolis, Minn.) in order to induce pacing CHF as described above. Ten to 14 days following recovery from the surgical procedure, a baseline echocardiographic study (ATL Ultramark VI, 2.25 MHz transducer, Bothell, Wash.) was performed and pacing initiated at 240 beats/min for 3 weeks. An additional group of 6 normal control animals were cared for in identical fashion with the exception of the pacing protocol. At the conclusion of the 3-week pacing period, the pacemakers were deactivated and echocardiographic studies were used to image the LV from a right parasternal approach. Following the echocardiographic study, the animals were prepared for acute instrumentation and initiation of the study protocol.
The pigs were anesthetized (i.v. sufentanyl […], etomidate 0.3 mg/kg) and paralyzed (vecuronium 10 mg, tubocurarine 12 mg). A maintenance infusion of 10 ml/kg/hr of lactated ringer's solution was maintained throughout the protocol. A thermodilution catheter (7.5 Fr, Baxter Healthcare Corp., Irvine, Calif.) was positioned in the pulmonary artery via the right external jugular vein and a large bore catheter (7 Fr) was placed in the left external jugular vein for fluid administration. The carotid artery was exposed and cannulated, and the catheter (7 Fr) was advanced to the aortic root for aortic blood pressure measurements and blood sampling drained.
Following instrumentation and a 10-minute stabilization period, baseline hemodynamics were recorded and digitized. Thermodilution derived cardiac output and ejection fraction were obtained from the pulmonary artery catheter in triplicate. Pulmonary and systemic vascular resistances were computed from the pressure measurements and cardiac output and using standard formulae.
Following instrumentation and collection of baseline measurements, the A1 receptor antagonist (3-[4-(2,6-Dioxo-1,3-dipropyl-2,3,6,7-tetrahydro-1H-purin-8-yl)-bicyclo[2.2.2]oct-1-yl]-propionic acid (BG9928), 1 mg/kg) was infused intravenously. Hemodynamic measurements described in the previous section were repeated at 10, 20, 30, 60, 90, and 120 minutes post infusion.
Comparisons of basal hemodynamics between the control and HF groups were performed using Student's t-test. Time-dependent changes in hemodynamics following A1 block infusion were examined by ANOVA. Pair wise comparisons were performed with a Bonferroni adjusted t-test. All statistical analyses were performed using statistical software programs (BMDP Statistical Software Inc. University of California Press, Los Angeles, Calif.). Results are presented as mean ± standard error of the mean (SEM). Values of p<0.05 were considered to be statistically significant.

[3] = BG9719 1 mg/kg infusion, 10-120 min post infusion
[4] = BG9928 1 mg/kg intravenous infusion

SMILES | pulmonary vascular resistance (PVR), decrease from baseline ([1]; 1 mg/kg intravenous infusion, 10 min post treatment, then returned to baseline levels, p<0.05) [%] | pulmonary artery pressure (PAP), change in words ([1]; 1 mg/kg, 30 minutes after treatment, remained depressed) | pulmonary capillary wedge pressure (PCWP), change in words ([1]; 1 mg/kg, 90 minutes after treatment) | pulmonary capillary wedge pressure (PCWP) ([1]; 1 mg/kg, 90 minutes post treatment, p<0.05, mean±SEM) [mmHg] | mean pulmonary artery pressure after treatment ([1]; 1 mg/kg, from 30 min post treatment, baseline 30±1 mmHg, p<0.05, mean±SEM) [mmHg] | systemic vascular resistance, change from baseline ([1]; BG9719 1 mg/kg infusion) | cardiac output (CO), change from baseline [1, 3] | heart rate (HR), change from baseline [1, 3] | mean arterial pressure (MAP), change from baseline [1, 3] | systemic vascular resistance (SVR), change from baseline ([2]; 1 mg/kg intravenous infusion, 10 min post treatment) | pulmonary vascular resistance (PVR), fall from baseline ([2]; 1 mg/kg intravenous infusion, 10 min post treatment, p<0.05) [%] | cardiac output, change from baseline [2, 4] | heart rate, change from baseline [2, 4] | mean arterial pressure, change from baseline [2, 4]
CCCn1c(=O)c2[nH]c(C3CC4CC3C3OC43)nc2n(CCC)c1=O (centres unmarked) [BG9719, 8-(3-Oxa-tricyclo[3.2.1.0^2,4]oct-6-yl)-1,3-dipropyl-3,7-dihydro-purine-2,6-dione] | 38 | decreased | decreased | 9 ± 2 | 23±3 | No change | No change | No change | No change |  |  |  |  | 
CCCn1c(=O)c2[nH]c(C34CCC(CCC(=O)O)(CC3)CC4)nc2n(CCC)c1=O [BG9928, 3-[4-(2,6-Dioxo-1,3-dipropyl-2,3,6,7-tetrahydro-1H-purin-8-yl)-bicyclo[2.2.2]oct-1-yl]-propionic acid] |  |  |  |  |  |  |  |  |  | no change | 18 | No change | No change | No change
